Reference: patent US11697646B2, “Triazole N-linked carbamoyl cyclohexyl acids as LPA antagonists” (BRISTOL-MYERS SQUIBB COMPANY, priority 2017, dated 2023)

Molecular target: T1, human LPA1 (Homo sapiens, UniProt Q92633)
T1 construct: expressed in transfected cells; host or cells: Chinese hamster ovary (CHO) cells
Assay: LPA1 functional antagonist assay (calcium flux)
Assay type: cell-based
Conditions: CHO cells overexpressing human LPA1; calcium flux induced by 10 nM LPA; read-out: hLPA1 IC50
Method: The effectiveness of compounds of the present invention as LPA1 inhibitors can be determined in an LPA1 functional antagonist assay as follows:
The cells were then equilibrated to room temperature for 30 minutes before the assay. […] IC50 values were determined by fitting data to a 4-parameter logistic equation (GraphPad Prism, San Diego Calif.).

T1 sequence (Q92633 whole entry): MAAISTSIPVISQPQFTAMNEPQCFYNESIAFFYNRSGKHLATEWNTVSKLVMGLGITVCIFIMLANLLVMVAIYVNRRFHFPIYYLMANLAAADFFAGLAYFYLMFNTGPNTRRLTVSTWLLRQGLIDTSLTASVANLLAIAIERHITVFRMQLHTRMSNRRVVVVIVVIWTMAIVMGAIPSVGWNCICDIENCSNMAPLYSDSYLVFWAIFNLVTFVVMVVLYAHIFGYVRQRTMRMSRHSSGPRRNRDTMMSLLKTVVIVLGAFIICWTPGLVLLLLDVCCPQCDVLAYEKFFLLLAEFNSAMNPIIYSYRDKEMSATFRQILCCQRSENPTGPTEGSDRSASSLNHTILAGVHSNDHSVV

IC50 [nM] | Structure (SMILES)
602 | Cc1nc(-c2nnn(C)c2CNC(=O)OCC2(F)CC2)ccc1O[C@H]1CCC[C@H](C(=O)O)C1 [Example 49, (1S,3S)-3-((6-(5-(((((1-fluorocyclopropyl)methoxy)carbonyl)amino)methyl)-1-methyl-1H-1,2,3-triazol-4-yl)-2-methylpyridin-3-yl)oxy)cyclohexane-1-carboxylic acid]
62 | CCC1(COC(=O)NCc2c(-c3ccc(O[C@H]4CCC[C@H](C(=O)O)C4)cn3)nnn2C)CC1 [Example 51, (1S,3S)-3-((6-(5-(((((1-ethylcyclopropyl)methoxy)carbonyl)amino)methyl)-1-methyl-1H-1,2,3-triazol-4-yl)pyridin-3-yl)oxy)cyclohexane-1-carboxylic acid]
58 | CCCC1(COC(=O)NCc2c(-c3ccc(O[C@H]4CCC[C@H](C(=O)O)C4)c(C)n3)nnn2C)CCC1 [Example 54]
885 | CCOCCOC(=O)NCc1c(-c2ccc(O[C@H]3CCC[C@H](C(=O)O)C3)c(C)n2)nnn1C [Example 56, (1S,3S)-3-((6-(5-((((2-ethoxyethoxy)carbonyl)amino)methyl)-1-methyl-1H-1,2,3-triazol-4-yl)-2-methyl-pyridin-3-yl)oxy)cyclohexane-1-carboxylic acid]
68 | CCC1(COC(=O)NCc2c(-c3ccc(O[C@H]4CCC[C@H](C(=O)O)C4)c(C)n3)nnn2C)CCC1 [Example 57, (1S,3S)-3-((6-(5-(((((1-ethylcyclobutyl)methoxy)carbonyl)amino)methyl)-1-methyl-1H-1,2,3-triazol-4-yl)-2-methylpyridin-3-yl)oxy)cyclohexane-1-carboxylic acid]
38 | CCC1(COC(=O)NCc2c(-c3ccc(O[C@H]4CCC[C@H](C(=O)O)C4)c(C)n3)nnn2C)CC1 [Example 58, (1S,3S)-3-((6-(5-(((((1-ethylcyclopropyl)methoxy)carbonyl)amino)methyl)-1-methyl-1H-1,2,3-triazol-4-yl)-2-methylpyridin-3-yl)oxy)cyclohexane-1-carboxylic acid]
48 | Cc1nc(-c2nnn(C)c2CNC(=O)OCC2(C)CC2)ccc1O[C@H]1CCC[C@H](C(=O)O)C1 [Example 59, (1S,3S)-3-((2-methyl-6-(1-methyl-5-(((((1-methylcyclopropyl)methoxy)carbonyl)amino)methyl)-1H-1,2,3-triazol-4-yl)pyridin-3-yl)oxy)cyclohexane-1-carboxylic acid]

Further lines, the compound ahead of its results:

Structure (SMILES) | IC50 [nM]
CCCCOC(=O)N(C)Cc1c(-c2ccc(O[C@H]3CCC[C@H](C(=O)O)C3)c(C)n2)nnn1C [Example 36, (1S,3S)-3-((6-(5-(((butoxycarbonyl)(methyl)amino)methyl)-1-methyl-1H-1,2,3-triazol-4-yl)-2-methyl-pyridin-3-yl)oxy)cyclohexane carboxylic acid] | 19
Cc1nc(-c2nnn(C)c2CNC(=O)OCCC(C)(C)C)ccc1O[C@H]1CCC[C@H](C(=O)O)C1 [Example 37, (1S,3S)-3-((6-(5-((((3,3-dimethylbutoxy)carbonyl)amino)methyl)-1-methyl-1H-1,2,3-triazol-4-yl)-2-methylpyridin-3-yl)oxy)cyclohexanecarboxylic acid] | 12
Cc1nc(-c2nnn(C)c2CNC(=O)OCC2CC(C)(C)C2)ccc1O[C@H]1CCC[C@H](C(=O)O)C1 [Example 38, (1S,3S)-3-((6-(5-(((((3,3-dimethylcyclobutyl)methoxy)carbonyl)amino)methyl)-1-methyl-1H-1,2,3-triazol-4-yl)-2-methylpyridin-3-yl)oxy)cyclohexanecarboxylic acid] | 19
CCCCOC(=O)NCc1c(-c2ccc(O[C@H]3CCC[C@H](C(=O)O)C3)c(CC)n2)nnn1C [Example 41, (1S,3S)-3-((6-(5-(((butoxycarbonyl)amino)methyl)-1-methyl-1H-1,2,3-triazol-4-yl)-2-ethylpyridin-3-yl)oxy)cyclohexane-1-carboxylic acid] | 8
CCCOC(=O)NCc1c(-c2ccc(O[C@H]3CCC[C@H](C(=O)O)C3)c(CC)n2)nnn1C [Example 42, (1S,3S)-3-((2-ethyl-6-(1-methyl-5-(((propoxycarbonyl)amino)methyl)-1H-1,2,3-triazol-4-yl)pyridin-3-yl)oxy)cyclohexane-1-carboxylic acid] | 788
CCc1nc(-c2nnn(C)c2CNC(=O)OCc2ccccc2)ccc1O[C@H]1CCC[C@H](C(=O)O)C1 [Example 43, (1S,3S)-3-((6-(5-((((benzyloxy)carbonyl)amino)methyl)-1-methyl-1H-1,2,3-triazol-4-yl)-2-ethylpyridin-3-yl)oxy)cyclohexne-1-carboxylic acid] | 8
CCc1nc(-c2nnn(C)c2CNC(=O)OC2CCCC2)ccc1O[C@H]1CCC[C@H](C(=O)O)C1 [Example 44, (1S,3S)-3-((6-(5-((((cyclopentyloxy)carbonyl)amino)methyl)-1-methyl-1H-1,2,3-triazol-4-yl)-2-ethylpyridin-3-yl)oxy)cyclo-hexane-1-carboxylic acid] | 37
CCc1nc(-c2nnn(C)c2CNC(=O)OCC(C)(C)C)ccc1O[C@H]1CCC[C@H](C(=O)O)C1 [Example 45, (1S,3S)-3-((2-ethyl-6-(1-methyl-5-((((neopentyloxy)carbonyl)amino)methyl)-1H-1,2,3-triazol-4-yl)pyridin-3-yl)oxy)cyclohexane-1-carboxylic acid] | 94
CCc1nc(-c2nnn(C)c2CNC(=O)OCC(C)C)ccc1O[C@H]1CCC[C@H](C(=O)O)C1 [Example 46, (1S,3S)-3-((2-ethyl-6-(5-(((isobutoxycarbonyl)amino)methyl)-1-methyl-1H-1,2,3-triazol-4-yl)pyridin-3-yl)oxy)cyclohexane-1-carboxylic acid] | 120
CCCC1(COC(=O)NCc2c(-c3ccc(O[C@H]4CCC[C@H](C(=O)O)C4)cn3)nnn2C)CC1 [Example 50, (1S,3S)-3-((6-(1-methyl-5-(((((1-propylcyclopropyl)methoxy)carbonyl)amino)methyl)-1H-1,2,3-triazol-4-yl)pyridin-3-yl)oxy)cyclohexane-1-carboxylic acid] | 28
Cn1nnc(-c2ccc(O[C@H]3CCC[C@H](C(=O)O)C3)cn2)c1CNC(=O)OCC1(C)CC1 [Example 52, (1S,3S)-3-((6-(1-methyl-5-(((((1-methylcyclopropyl)methoxy)carbonyl)amino)methyl)-1H-1,2,3-triazol-4-yl)pyridin-3-yl)oxy)cyclohexane-1-carboxylic acid] | 81
COCCCOC(=O)NCc1c(-c2ccc(O[C@H]3CCC[C@H](C(=O)O)C3)c(C)n2)nnn1C [Example 53, (1S,3S)-3-((6-(5-((((3-methoxypropoxy)carbonyl)amino)methyl)-1-methyl-1H-1,2,3-triazol-4-yl)-2-methylpyridin-3-yl)oxy)cyclohexane-1-carboxylic acid] | 342
Cc1nc(-c2nnn(C)c2CNC(=O)OCCCF)ccc1O[C@H]1CCC[C@H](C(=O)O)C1 [Example 55, (1S,3S)-3-((6-(5-((((3-fluoropropoxy)carbonyl)amino)methyl)-1-methyl-1H-1,2,3-triazol-4-yl)-2-methylpyridin-3-yl)oxy)cyclohexane-1-carboxylic acid] | 411
